Source: patent publication US10004232B2 (priority 2011, dated 2018)

Columns and labels:
[1] = logP determination by HPLC on reversed-phase columns (C 18), EEC Directive 79/831 Annex V.A8; format: physicochemical; settings: for chromatographic logP: reversed-phase C18 HPLC column
Text: Calibration takes place using unbranched alkan-2-ones (having 3 to 16 carbon atoms) whose log P values are known (log P values determined on the basis of the retention times, by linear interpolation between two successive alkanones).

Plasmopara viticola = assay: Plasmopara test (grapevine) / protective; format: in vivo; settings: young grapevine plants, protective spray, active ingredient concentration 10 ppm, evaluation 6 days after inoculation
Experimental: Plasmopara Test (Grapevine)/Protective
Solvent: 24.5 parts by weight of acetone
• 24.5 parts by weight of dimethylacetamide Emulsifier: 1 part by weight of alkylaryl polyglycol ether
An appropriate preparation of active ingredient is prepared by mixing 1 part by weight of active ingredient with the specified amounts of solvent and emulsifier, and diluting the concentrate with water to the desired concentration.
To test for protective activity, young plants are sprayed with the preparation of active ingredient at the specified application rate. After the spray coating has dried on, the plants are inoculated with an aqueous spore suspension of Plasmopara viticola and then spend 1 day in an incubation cabinet at about 20° C. and 100% relative atmospheric humidity. The plants are subsequently placed for 4 days in a greenhouse at about 21° C. and about 90% atmospheric humidity. The plants are then moistened and placed in an incubation cabin for 1 day.
Evaluation takes place 6 days after inoculation. Here, 0% denotes an efficacy which corresponds to that of the control, whereas an efficacy of 100% means that no infestation is observed.

Phytophthora infestans = format: in vivo; settings: young tomato plants, protective spray, active ingredient concentration 100 ppm, evaluation 7 days after inoculation
[2] = [a] LC-MS in the acidic range, pH 2.7, 0.1% aqueous formic acid and acetonitrile
[3] = [b] LC-MS in the neutral range, pH 7.8, 0.001 molar aqueous ammonium hydrogencarbonate and acetonitrile

Structure (SMILES): C=CCOc1cc(F)cc(F)c1C1CC(c2csc(C3CCN(C(=O)Cn4nc(C(F)F)cc4C(F)F)CC3)n2)=NO1 (racemic) [Example I-20]
- LogP [1, 2]: 3.67
- LogP [1, 3]: 3.58
- Eff. % (Plasmopara viticola): 100%

Structure (SMILES): O=C(Oc1cc(F)cc(F)c1C1CC(c2csc(C3CCN(C(=O)Cn4nc(C(F)F)cc4C(F)F)CC3)n2)=NO1)C1CC1 (racemic) [Example I-16]
- LogP [1, 2]: 3.5
- LogP [1, 3]: 3.42

Structure (SMILES): O=C(Cn1nc(C(F)F)cc1C(F)F)N1CCC(c2nc(C3=NOC(c4c(F)cc(F)cc4OCC4CC4)C3)cs2)CC1 (racemic) [Example I-15]
- LogP [1, 2]: 3.81
- LogP [1, 3]: 3.76

Structure (SMILES): C#CCOc1ccc(F)c(C2CC(c3csc(C4CCN(C(=O)Cn5nc(C(F)F)cc5C(F)F)CC4)n3)=NO2)c1F (stereo not drawn) [Example I-2, 2-[3,5-Bis(difluoromethyl)-1H-pyrazol-1-yl]-1-[4-(4-{5-[2,6-difluoro-3-(prop-2-yn-1-yloxy)phenyl]-4,5-dihydro-1,2-oxazol-3-yl}-1,3-thiazol-2-yl)piperidin-1-yl]ethanone]
- Eff. % (Phytophthora infestans): 94%
- chromatographic logP [1, 2]: 3.26
- chromatographic logP [1, 3]: 3.18
- Eff. % (Plasmopara viticola): 100%

Structure (SMILES): O=Cc1cc(F)c(C2CC(c3csc(C4CCN(C(=O)Cn5nc(C(F)F)cc5C(F)F)CC4)n3)=NO2)c(F)c1 (racemic) [Example I-14]
- LogP [1, 2]: 2.93
- LogP [1, 3]: 2.87

Structure (SMILES): C=CCOc1ccc(F)c(C2CC(c3csc(C4CCN(C(=O)Cn5nc(C(F)F)cc5C(F)F)CC4)n3)=NO2)c1F (stereo not drawn) [Example I-4, 1-[4-(4-{5-[3-(Allyloxy)-2,6-difluorophenyl]-4,5-dihydro-1,2-oxazol-3-yl}-1,3-thiazol-2-yl)piperidin-1-yl]-2-[3,5-bis(difluoromethyl)-1H-pyrazol-1-yl]ethanone]
- Eff. % (Phytophthora infestans): 95%
- chromatographic logP [1, 2]: 3.59
- chromatographic logP [1, 3]: 3.51
- Eff. % (Plasmopara viticola): 100%

Structure (SMILES): C#CCOc1ccc(F)c(F)c1C1CC(c2csc(C3CCN(C(=O)Cn4nc(C(F)F)cc4C(F)F)CC3)n2)=NO1 (racemic) [Example I-8]
- LogP [1, 2]: 3.3
- LogP [1, 3]: 3.27
- Eff. % (Plasmopara viticola): 100%

Structure (SMILES): O=C(Cn1nc(C(F)F)cc1C(F)F)N1CCC(c2nc(C3=NOC(c4c(OC/C=C\Cl)ccc(F)c4F)C3)cs2)CC1 (racemic) [Example I-6]
- LogP [1, 2]: 3.79
- LogP [1, 3]: 3.71

Structure (SMILES): C#CCOc1cc(F)cc(F)c1C1CC(c2csc(C3CCN(C(=O)Cn4nc(C(F)F)cc4C(F)F)CC3)n2)=NO1 (racemic) [Example I-13]
- LogP [1, 2]: 3.32^[a]
- Eff. % (Plasmopara viticola): 100%

Structure (SMILES): O=C(Oc1cc(F)c(C2CC(c3csc(C4CCN(C(=O)Cn5nc(C(F)F)cc5C(F)F)CC4)n3)=NO2)c(F)c1)C1CC1 (racemic) [Example I-9]
- LogP [1, 2]: 3.53^[a]

Structure (SMILES): C=CCOc1cc(Cl)cc(Cl)c1C1CC(c2csc(C3CCN(C(=O)Cn4nc(C(F)F)cc4C(F)F)CC3)n2)=NO1 (racemic) [Example I-18]
- Eff. % (Phytophthora infestans): 95%
- LogP [1, 2]: 4.29
- LogP [1, 3]: 4.2
- Eff. % (Plasmopara viticola): 96%

Structure (SMILES): C=C(Cl)COc1cc(F)cc(F)c1C1CC(c2csc(C3CCN(C(=O)Cn4nc(C(F)F)cc4C(F)F)CC3)n2)=NO1 (racemic) [Example I-19]
- LogP [1, 2]: 3.79
- LogP [1, 3]: 3.7
- Eff. % (Plasmopara viticola): 100%

Structure (SMILES): C=CCOc1cc(F)c(C2CC(c3csc(C4CCN(C(=O)Cn5nc(C(F)F)cc5C(F)F)CC4)n3)=NO2)c(F)c1 (racemic) [Example I-11]
- LogP [1, 2]: 3.7^[a]

Structure (SMILES): C=C(Cl)COc1ccc(F)c(F)c1C1CC(c2csc(C3CCN(C(=O)Cn4nc(C(F)F)cc4C(F)F)CC3)n2)=NO1 (racemic) [Example I-7]
- LogP [1, 2]: 3.68
- LogP [1, 3]: 3.69
- Eff. % (Plasmopara viticola): 100%

Structure (SMILES): C#CCOc1cc(C)c(C)cc1C1(C)CC(c2csc(C3CCN(C(=O)Cn4nc(C(F)F)cc4C(F)F)CC3)n2)=NO1 (stereo not drawn) [Example I-1, 2-[3,5-Bis(difluoromethyl)-1H-pyrazol-1-yl]-1-[4-(4-{5-[4,5-dimethyl-2-(prop-2-yn-1-yloxy)phenyl]-5-methyl-4,5-dihydro-1,2-oxazol-3-yl}-1,3-thiazol-2-yl)piperidin-1-yl]ethanone]
- Eff. % (Phytophthora infestans): 98%
- chromatographic logP [1, 2]: 4.1
- chromatographic logP [1, 3]: 4.04

Structure (SMILES): CS(=O)(=O)Nc1cc(F)c(C2CC(c3csc(C4CCN(C(=O)Cn5nc(C(F)F)cc5C(F)F)CC4)n3)=NO2)c(F)c1 (stereo not drawn) [Example I-5, N-(4-{3-[2-(1-{[3,5-Bis(difluoromethyl)-1H-pyrazol-1-yl]acetyl}piperidin-4-yl)-1,3-thiazol-4-yl]-4,5-dihydro-1,2-oxazol-5-yl}-3,5-difluorophenyl)methanesulphonamide]
- Eff. % (Phytophthora infestans): 95%
- chromatographic logP [1, 2]: 2.63
- Eff. % (Plasmopara viticola): 96%

Structure (SMILES): C#CCOc1cc(F)c(C2CC(c3csc(C4CCN(C(=O)Cn5nc(C(F)F)cc5C(F)F)CC4)n3)=NO2)c(F)c1 (racemic) [Example I-3]
- Eff. % (Phytophthora infestans): 98%
- LogP [1, 2]: 3.3
- LogP [1, 3]: 3.26
- Eff. % (Plasmopara viticola): 100%

Structure (SMILES): C#CCOc1c(F)ccc(F)c1C1CC(c2csc(C3CCN(C(=O)Cn4nc(C(F)F)cc4C(F)F)CC3)n2)=NO1 (racemic) [Example I-12]
- LogP [1, 2]: 3.31
- LogP [1, 3]: 3.3

Structure (SMILES): C#CCOc1cc(Cl)cc(Cl)c1C1CC(c2csc(C3CCN(C(=O)Cn4nc(C(F)F)cc4C(F)F)CC3)n2)=NO1 (racemic) [Example I-21]
- Eff. % (Phytophthora infestans): 95%
- LogP [1, 2]: 3.94
- LogP [1, 3]: 3.85
- Eff. % (Plasmopara viticola): 100%

Structure (SMILES): C#CCOc1c(F)cc(F)cc1C1CC(c2csc(C3CCN(C(=O)Cn4nc(C(F)F)cc4C(F)F)CC3)n2)=NO1 (racemic) [Example I-10]
- LogP [1, 2]: 3.58
- LogP [1, 3]: 3.51

Structure (SMILES): C=CCOc1ccc(F)c(F)c1C1CC(c2csc(C3CCN(C(=O)Cn4nc(C(F)F)cc4C(F)F)CC3)n2)=NO1 (racemic) [Example I-17]
- LogP [1, 2]: 3.53
- LogP [1, 3]: 3.56
- Eff. % (Plasmopara viticola): 100%
